Test results taken from PubChem BioAssay (NCI).
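GI50 marks 50% less growth. Definition used: TGI = concentration required for complete inhibition of growth.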

How the values were obtained:
Test in all cases: NCI-60 cell line screen, 384-well format
[1] = tested on: NCI-H23 lung
[2] = tested on: NCI-H322M lung
[3] = tested on: NCI-H460 NSCLC
[4] = tested on: NCI-H522 lung
[5] = tested on: NCI/ADR-RES ovarian
[6] = tested on: OVCAR-3 ovarian
[7] = tested on: OVCAR-4 ovarian
[8] = tested on: OVCAR-5 ovarian
[9] = tested on: OVCAR-8 ovarian
[10] = tested on: PC-3 prostate
[11] = tested on: RPMI-8226 leukemia
[12] = tested on: RXF 393 renal
[13] = tested on: SF-268 CNS
[14] = tested on: SF-295 CNS
[15] = tested on: SF-539 CNS
[16] = tested on: SK-MEL-2 melanoma
[17] = tested on: SK-MEL-28 melanoma
[18] = tested on: SK-MEL-5 melanoma
[19] = tested on: SK-OV-3 ovarian
[20] = tested on: SN12C renal
[21] = tested on: SNB-19 CNS
[22] = tested on: SNB-75 CNS
[23] = tested on: SR leukemia
[24] = tested on: SW-620 colon
[25] = tested on: T-47D breast
[26] = tested on: TK-10 renal
[27] = tested on: U251 glioblastoma
[28] = tested on: UACC-257 melanoma
[29] = tested on: UACC-62 melanoma
[30] = tested on: UO-31 renal

## C[C@H]1C[C@@H](n2c(Nc3ccc(OC(F)(F)F)cc3)nc3cc(CCC(=O)O)ccc32)CC(C)(C)C1
[1]
  GI50: 14.6 µM
  TGI: 27.9 µM
[2]
  GI50: 17 µM
  TGI: 30.9 µM
[3]
  GI50: 13.6 µM
  TGI: 26.8 µM
[4]
  GI50: 16.5 µM
  TGI: 30.1 µM
[5]
  GI50: 16.1 µM
  TGI: 29.8 µM
[6]
  GI50: 9.71 µM
  TGI: 22.5 µM
[7]
  GI50: 13.1 µM
  TGI: 25.9 µM
[8]
  GI50: 17.2 µM
  TGI: 31.1 µM
[9]
  GI50: 9.58 µM
  TGI: 22 µM
[10]
  GI50: 13.7 µM
  TGI: 26.8 µM
[11]
  GI50: 4.46 µM
  TGI: 11.4 µM
[12]
  GI50: 13 µM
  TGI: 25.7 µM
[13]
  GI50: 13 µM
  TGI: 25.8 µM
[14]
  GI50: 11.8 µM
  TGI: 24.2 µM
[15]
  GI50: 14.5 µM
  TGI: 27.7 µM
[16]
  GI50: 17.9 µM
  TGI: 31.8 µM
[17]
  GI50: 14.3 µM
  TGI: 27.5 µM
[18]
  GI50: 14.2 µM
  TGI: 27.3 µM
[19]
  GI50: 18.2 µM
  TGI: 32.2 µM
[20]
  GI50: 15.7 µM
  TGI: 29.2 µM
[21]
  GI50: 12.5 µM
  TGI: 25.1 µM
[22]
  GI50: 20.3 µM
  TGI: 34.6 µM
[23]
  GI50: 7 µM
  TGI: 20 µM
[24]
  GI50: 14.6 µM
  TGI: 27.9 µM
[25]
  GI50: 13.5 µM
  TGI: 27.6 µM
[26]
  GI50: 16 µM
  TGI: 29.7 µM
[27]
  GI50: 9.69 µM
  TGI: 22.5 µM
[28]
  GI50: 17.8 µM
  TGI: 31.8 µM
[29]
  GI50: 15.2 µM
  TGI: 28.6 µM
[30]
  GI50: 11.9 µM
  TGI: 24.4 µM
